# Columns and labels:
# LOLMU = experiment: Post-emergence weed control, greenhouse (Example 1), percent injury 14 DAT; format: in vivo; details: Lolium multiflorum, 336 h, Glufosinate 450 g/ha, read-out: Herbicidal action against LOLMU (% activity compared to untreated) Found
# Source text: (§1) The herbicide compounds applied in the examples were used as experimental or commercially available solo or premix formulations which have been diluted with tap water to a suitable concentration. Glufosinate was used as a commercial SL formulation containing 280 g ai/I of glufosinate (Liberty 280 SL, BASF). While the PPO herbicides saflufenacil and trifludimoxazin were used as solo (saflufenacil - Sharpen/Heat herbicide 342 SC, BASF, or trifludimoxazin - Vulcarus 500 SC, BASF), or a premix of saflufenacil + trifludimoxazin as a 250 + 125 g ai/I SC formulation.
# (§2) The evaluation for plant injury or damage caused by the chemical compositions was carried out using a scale from 0 - 100% when compared with the untreated control plants. Here, 0 means no damage and 100 means complete destruction of the plants.
# 22., E=X+Y-(X*Y/100), where X = effect in percent using herbicide A at an application rate of a; Y = effect in percent using herbicide B at an application rate of b; E = expected effect (in %) of A + B at application rates a + b.
# The value E corresponds to the effect (plant damage or injury) which is to be expected if the activity of the individual compounds is just additive. If the observed effect is higher than the value E calculated according to Colby, a synergistic effect is present. […]
# CARPA = experiment: Post-emergence weed control, field (Example 2), percent injury 16 DAT; format: in vivo, Cardamine parviflora
# Source text: as §1, §2
# (§3) A natural field population of small flowered bittercress (Cardamine parviflora; CARPA), cressleaf grounsel (Senecio glabellus; SENGL), cutleaf evening primrose (Oenothera laciniate; OEOLA), and annual bluegrass (Poa annua; POAAN) were treated with postemergence applications of either glufosinate at 450 or 655 g ai/ha, saflufenacil + trifludimoxazin at 1.7 + 0.8, or 4.2 + 2.1 g ai/ha, or the combination of glufosinate and saflufenacil + trifludimoxazin at 450 and 1.7 + 0.8, or 4.2 + 2.1 g ai/ha, respectively, when they were 10 - 25 cm in height. […]
# SENGL = experiment: as above; format: in vivo, Senecio glabellus
# Source text: as §1, §2, §3
# OEOLA = experiment: as above; format: in vivo, Oenothera laciniate
# Source text: as §1, §2, §3
# POAAN [1] = experiment: as above; format: in vivo, Poa annua
# Source text: as §1, §2, §3
# STEME = experiment: Post-emergence weed control, field (Example 3), percent injury 17 DAT; format: in vivo, Stellaria media
# Source text: as §1, §2
# (§4) A natural field population of common chickweed (Stellaria media; STEME), purple cudweed (Gnaphalium purpureum; GNAPU), henbit (Lamium amplexicaule; LAMAM), and annual bluegrass (Poa annua; POAAN) were treated with postemergence applications of either glufosinate at 450 or 655 g ai/ha, saflufenacil + trifludimoxazin at 1.7 + 0.8, or 4.2 + 2.1 g ai/ha, or the combination of glufosinate and saflufenacil + trifludimoxazin at 450 and 1.7 + 0.8, or 4.2 + 2.1 g ai/ha, respectively, when they were 7.6 - 15 cm in height. […]
# GNAPU = experiment: as above; format: in vivo, Gnaphalium purpureum
# Source text: as §1, §2, §4
# LAMAM = experiment: as above; format: in vivo, Lamium amplexicaule
# Source text: as §1, §2, §4
# POAAN [2] = experiment: as above; format: in vivo, Poa annua
# Source text: as §1, §2, §4
structure (smiles),measurement,setting,value
"CP(=O)(O)CCC(N)C(=O)O (racemic) [Glufosinate, (2RS)-2-amino-4-[hydroxy(methyl)phosphinoyl]butyric acid]",activity at 450 g/ha,LOLMU,68.5%
same,Mean % Control (16 DAT) CARPA,CARPA; 450 g ai/ha,90.7%
same,Mean % Control (16 DAT) CARPA,CARPA; 655 g ai/ha,95.0%
same,Mean % Control (16 DAT) SENGL,SENGL; 450 g ai/ha,80.7%
same,Mean % Control (16 DAT) SENGL,SENGL; 655 g ai/ha,88.7%
same,Mean % Control (16 DAT) OEOLA,OEOLA; 450 g ai/ha,81.7%
same,Mean % Control (16 DAT) OEOLA,OEOLA; 655 g ai/ha,92.3%
same,Mean % Control (16 DAT) POAAN,POAAN [1]; 450 g ai/ha,80.0%
same,Mean % Control (16 DAT) POAAN,POAAN [1]; 655 g ai/ha,90.7%
same,Mean % Control (17 DAT) STEME,STEME; 450 g ai/ha,53.3%
same,Mean % Control (17 DAT) STEME,STEME; 655 g ai/ha,90.0%
same,Mean % Control (17 DAT) GNAPU,GNAPU; 450 g ai/ha,78.3%
same,Mean % Control (17 DAT) GNAPU,GNAPU; 655 g ai/ha,98.7%
same,Mean % Control (17 DAT) LAMAM,LAMAM; 450 g ai/ha,50.0%
same,Mean % Control (17 DAT) LAMAM,LAMAM; 655 g ai/ha,82.7%
same,Mean % Control (17 DAT) POAAN,POAAN [2]; 450 g ai/ha,66.7%
same,Mean % Control (17 DAT) POAAN,POAAN [2]; 655 g ai/ha,86.7%

# — EP4000400A1, “HERBICIDE COMBINATION COMPRISING GLUFOSINATE, SA[…] TRIFLUDIMOXAZIN” (BASF SE, priority 2020, dated 2022)
